Where a name gives a salt, the structure may show the parent alone.
Experiments:
PepT1 = biological target: T1, PepT1 (Homo sapiens, UniProt P46059); assay: In Vitro PepT1 GlySar Inhibition Screen; assay type: cell-based; conditions: for GlySar uptake inhibition, mean values ± standard deviation (controls): negative and positive controls run in parallel, n=18-19; for inhibition at 5000 µM: prodrug at 5 mM, pH 6.0, PepT1 transiently transfected HeLa cells, 5 μM [14C]Gly-Sar and 20 μM cold Gly-Sar, read-out: Mean GlySar Uptake Inhibition %
T1 construct: expressed in transfected cells; host or cells: HeLa cells (ATCC), transient transfection with FUGENE6
T1 sequence (P46059 1-708): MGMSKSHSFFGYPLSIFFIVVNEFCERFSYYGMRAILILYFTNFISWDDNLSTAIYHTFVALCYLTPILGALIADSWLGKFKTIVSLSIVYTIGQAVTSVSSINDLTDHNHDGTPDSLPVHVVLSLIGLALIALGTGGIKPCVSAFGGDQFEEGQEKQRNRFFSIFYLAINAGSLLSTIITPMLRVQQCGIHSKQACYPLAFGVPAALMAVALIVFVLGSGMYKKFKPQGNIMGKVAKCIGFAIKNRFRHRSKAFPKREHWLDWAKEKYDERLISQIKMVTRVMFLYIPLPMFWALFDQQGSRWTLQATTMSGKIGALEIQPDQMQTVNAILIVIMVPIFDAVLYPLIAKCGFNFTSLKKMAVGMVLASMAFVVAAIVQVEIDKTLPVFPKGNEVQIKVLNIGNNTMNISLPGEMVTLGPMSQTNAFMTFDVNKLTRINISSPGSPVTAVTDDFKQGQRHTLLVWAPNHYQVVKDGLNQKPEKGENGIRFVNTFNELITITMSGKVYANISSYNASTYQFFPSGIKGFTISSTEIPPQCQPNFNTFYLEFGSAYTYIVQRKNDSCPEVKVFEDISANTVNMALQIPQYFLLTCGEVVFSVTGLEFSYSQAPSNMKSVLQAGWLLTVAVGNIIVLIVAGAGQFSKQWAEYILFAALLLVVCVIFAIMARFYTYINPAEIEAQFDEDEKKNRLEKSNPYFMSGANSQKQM
Description: PepT1 assays are established to examine the ability of the amino acid prodrug compounds to interact with the intestinal absorption transporter PepT1.
HeLa cells, derived from human cancer cells, (American Type Culture Collection) are grown in Hyclone Medium (Invitrogen, Cat# SH30243) containing 10% fetal bovine serum (FBS), 0.1 mM non essential amino acids (NEAA), and 100 units/mL penicillin with 100 μg/mL streptomycin at 37° C. in a 5% CO2 humidified atmosphere. The cell line is used for up to 40 passages and then discarded. Frozen cells in 1 mL vials are thawed in water bath for 1-2 minutes and added to 5 mL of cell medium at 37° C. Each of the T-flasks is provided with 8.5 mL of the fresh medium and 1.5 mL of the cell stock. Cells are passaged twice during a week. […] Each new flask receives a combination of 8.5 mL of fresh medium and 1.5 mL of cell stock, in order to obtain 1:6 cell dilution. Cells are incubated at 37° C., until ready for the uptake study.
Cells that are 70-80% confluent in the T-flasks are plated 1 day prior to the transfection procedure. The flask with the cell stock is treated with PBS-EDTA and trypsin to detach the cells, and transfection medium is used from this point. Transfection medium consists of Dulbecco's Modified Eagle Medium (DMEM)+NEAA. To each well, 0.5 mL of the cell mixture is added (1.3×10^5 is the desired cell concentration) and the cells are incubated at 37° C. overnight. Twenty four hours before the assay, cells are transfected with PEPT1. Transfection mixture is prepared by mixing 600 μL of serum free transfection medium, 18 μL of FUGENE6® (Roche Diagnostics), and 11 μg of the PepT1 DNA. The transfection reagent-DNA complex is incubated for 20 minutes and 24 μL of the reagent-DNA complex is added to each well.
Inhibition of PEPT1-mediated [glycyl-1-2-^14C]Glyclysarcosine (GlySar) uptake activity is measured in the cells cultured in the 24-well plates 24-hours post transfection as previously published (Zhang et al. 2004. J. Pharm. Exper Ther. 310:437-445). To measure the ability of a compound of the present invention to inhibit the uptake of [^14C]Gly-Sar, prodrug compounds are incubated with 80 to 90% confluent PepT1 transiently transfected HeLa cells at 5 mM in pH 6.0 uptake medium in the presence of 5 μM [^14C]Gly-Sar (Moravek Biochemicals) and 20 μM cold Gly-Sar. Uptake media consists of 140 mM NaCl, 5.4 mM KCl, 1.8 mM CaCl2, 0.8 mM MgSO4, 5 mM Glucose, 25 mM tris(hydroxymethyl)aminomethane buffer (TRIS). The solution is then brought to pH 6.0 using 2-(N-morpholino)ethanesulfonic acid. The incubation volume is 500 μL and is performed at room temperature for 3 minutes. To stop the uptake at the conclusion of the incubation time, the uptake media is aspirated off of the cell monolayer and 500 μL of ice cold PBS added to the well. The cells are washed 3 times with 500 μL of room temperature PBS without Ca^+2 and Mg^+2. The cells are then lysed with 300 μL of 1% TRITON® X100 H2O solution. A 200 μL aliquot is removed and radioactivity is determined by liquid scintillation counting to measure the [^14C]Gly-Sar present in each of the incubation wells. A no inhibitor control is established and the percent inhibition of each prodrug is calculated with respect to this control.

human mGlu2 receptor = biological target: T2, human mGlu2 receptor (Homo sapiens, UniProt Q14416); assay: Human mGlu2 Agonist FLIPR Assay; assay type: cell-based; conditions: for Emax: percent stimulation relative to maximal glutamate response (100 μM glutamate), read-out: Relative % Efficacy
T2 construct: expressed in transfected cells; host or cells: AV-12 cells (Syrian hamster fibroblasts), co-transfected with rat EAAT1 and Galpha15
T2 sequence (Q14416 19-872): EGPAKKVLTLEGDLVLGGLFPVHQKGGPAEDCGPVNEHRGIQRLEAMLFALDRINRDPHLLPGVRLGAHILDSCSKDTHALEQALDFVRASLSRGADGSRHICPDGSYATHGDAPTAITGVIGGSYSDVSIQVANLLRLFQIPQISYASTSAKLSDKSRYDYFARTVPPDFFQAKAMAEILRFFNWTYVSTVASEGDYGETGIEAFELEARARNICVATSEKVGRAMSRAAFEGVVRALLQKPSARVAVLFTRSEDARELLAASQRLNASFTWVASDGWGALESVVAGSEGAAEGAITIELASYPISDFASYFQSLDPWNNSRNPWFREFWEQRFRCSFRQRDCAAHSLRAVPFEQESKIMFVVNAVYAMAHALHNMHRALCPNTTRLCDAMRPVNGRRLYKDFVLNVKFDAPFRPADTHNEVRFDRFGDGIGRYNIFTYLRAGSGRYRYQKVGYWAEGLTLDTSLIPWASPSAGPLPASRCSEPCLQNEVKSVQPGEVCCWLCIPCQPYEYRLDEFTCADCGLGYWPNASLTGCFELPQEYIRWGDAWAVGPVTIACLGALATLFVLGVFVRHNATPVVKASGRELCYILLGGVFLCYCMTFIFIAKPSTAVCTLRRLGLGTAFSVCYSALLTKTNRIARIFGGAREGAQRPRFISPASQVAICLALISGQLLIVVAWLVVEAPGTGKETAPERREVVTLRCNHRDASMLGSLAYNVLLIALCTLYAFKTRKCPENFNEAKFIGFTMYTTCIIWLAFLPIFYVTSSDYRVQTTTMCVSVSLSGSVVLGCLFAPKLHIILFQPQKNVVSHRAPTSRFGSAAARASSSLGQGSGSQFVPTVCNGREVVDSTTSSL
Description: AV-12 cell lines, derived from Syrian Hamster fibroblasts and stably expressing the human mGlu2 receptor and co-transfected with the rat glutamate transporter EAAT 1 (Excitatory Amino Acid Transporter 1) and the Gα15 subunit, are used for these studies. The expression of Gα15 allows Gi-coupled receptors to signal through the phospholipase C pathway, resulting in the ability to measure receptor activation by a fluorometric calcium response assay. The cell lines are maintained by culturing in Dulbecco's Modified Eagle's Medium (DMEM) with high glucose and pyridoxine hydrochloride supplemented with 5% dialyzed fetal bovine serum, 1 mM sodium pyruvate, 10 mM HEPES [4-(2-hydroxyethyl)-1-piperazineethanesulfonic acid], 1 mM of L-glutamine, and 5 μg/mL blasticidin (all media are purchased from Invitrogen). Confluent cultures are passaged biweekly using an enzyme-free dissociation solution (Chemicon S-004-B).
Intracellular calcium levels are monitored before and after the addition of compounds using a Fluorometric Imaging Plate Reader (FLIPR®, Molecular Devices). The assay buffer is comprised of Hank's Buffered Salt Solution (HBSS; Sigma) supplemented with 20 mM HEPES. […] The dye solution is removed and replaced with fresh assay buffer (50 μL per well). […] Results are analyzed using PRISM® v4.03 (GraphPad Software). […] Exemplified compounds of the present invention are solubilized as 10 mM stocks in 0.1N NaOH and stored at −20 C. They are diluted through a three-fold dilution series into assay buffer. After taking an initial 5-sec fluorescent read on the FLIPR® instrument, a compound of the present invention is added to the cell plate (50 μL per well). Data are collected every second for the first 30 seconds and then every 3 seconds for a total of 90 seconds in order to detect agonist activity. The maximal response is defined as that induced by ECmax (100 μM glutamate). The compound effect is measured as maximal minus minimal peak heights in relative fluorescent units (RFUs) corrected for basal fluorescence measured in the absence of glutamate. Determinations are carried out using single plates. Agonist effects are quantified as percent stimulation induced by compound alone relative to the maximal glutamate response. All data are calculated as relative EC50 values using a four-parameter logistic curve fitting program (ACTIVITY BASE® v5.3.1.22).

[1] = system: PCP-induced hyperlocomotor activity in mice; assay: Reversal of Phencyclidine (PCP)-Induced Hyperlocomotor Activity in Mice; assay type: in vivo, mouse; conditions: Mus musculus, i.p. administration, 30 minutes prior to 7.5 mg/kg PCP
Description: This assay for Reversal of Phencyclidine (PCP)-Induced Hyperlocomotor Activity in Mice is run substantially as the Reversal of Phencyclidine (PCP)-Induced Hyperlocomotor Activity in Rats assay provided above, using mice instead of rats and with the changes noted below.
Motor activity is monitored by placing individual male, ICR (CD-1), (Harlan, Indianapolis, Ind.) mice in transparent, plastic shoe-box cages of the dimensions 45×25×20 cm, with 0.5 cm depth of wood chips as bedding, and plastic lid on top of the cage. Motor monitors (Kinder Scientific) consist of a rectangular rack of 12 photobeams arranged in an 8×4 formation, (or a high density grouping of 22 in a 15×7 pattern) at a height of 2.5 cm. The shoe box cage is placed inside of these racks, with the racks on a 3 foot high tabletop in an isolated room. A compound of the present invention is dosed (intraperitoneal route, non-prodrug) usually within a range of 0.3-30 mg/kg; though higher doses may be used, 30 minutes prior to a 7.5 mg/kg challenge dose of phencyclidine (PCP). On the test day, mice are placed in the test cage and allowed to acclimate for 45 minutes prior to PCP challenge; mice are monitored for an additional 60 minutes following PCP administration.
Power analyses have determined that 7-8 mice per group are needed to have appropriate statistical power for detecting treatment differences (power=0.8).

[2] = system: immobility in forced swim test in mice; assay: Forced Swim Test in Rodents (mice); assay type: in vivo, mouse; conditions: intraperitoneal dosing 60 min prior to testing
Description: In this assay, mechanisms with purported antidepressant-like activity decrease immobility in a brief inescapable forced swim episode.
The forced-swim test was conducted in mice (male, NIH-Swiss mice, 20-25 g, Harlan Sprague-Dawley, Indianapolis, Ind.). Mice are placed in clear plastic cylinders (diameter 10 cm; height: 25 cm) filled to 6 cm with 22-25° C. water for six min. The duration of immobility is recorded during the last 4 min of a six-minute trial. The compounds of Examples 2, 3, 8, 11, and 12 are tested following intraperitoneal dosing, 60 min prior to testing. Imipramine is used as a positive control for these studies. Compounds are formulated in a water vehicle, with minimal NaOH added. The amount of time spent immobile (defined as movements only necessary to keep the subject's head above water) is the dependent measure and recorded by an observer blinded to the drug treatment of the subjects. Data are analyzed by post-hoc Dunnett's test with alpha level set at 0.05.

Row | Compound | Emax (human mGlu2 receptor) [%] | ED50 [1] [mg/kg] | inhibition at 5000 µM (PepT1) [%] | further results
1 | CC1=C(C(=O)O)N2C(=O)[C@@H](NC(=O)[C@H](N)c3ccc(O)cc3)[C@H]2SC1 [Cefadroxil, reference compound] |  |  |  | GlySar uptake inhibition, mean values ± standard deviation (controls) (PepT1): 53.2±13.2%
2 | Cl.N[C@@]1(C(=O)O)C[C@@H](Sc2cn[nH]n2)[C@H]2[C@H](C(=O)O)[C@H]21 [Example 1, (1R,2S,4R,5R,6R)-2-Amino-4-(2H-[1,2,3]triazol-4-ylsulfanyl)-bicyclo[3.1.0]hexane-2,6-dicarboxylic acid hydrochloride] | 92.6 | 18.4 |  | EC50 (human mGlu2 receptor; hMGLUR2 FLIPR assay, AV-12 cells expressing human mGlu2, calcium response, read-out: Relative EC50): 46 nM
3 | Cl.N[C@@]1(C(=O)O)C[C@@H](Sc2nnc(C(F)(F)F)[nH]2)[C@H]2[C@H](C(=O)O)[C@H]21 [Example 2, (1R,2S,4R,5R,6R)-2-Amino-4-(5-trifluoromethyl-1H-[1,2,4]triazol-3-ylsulfanyl)-bicyclo[3.1.0]hexane-2,6-dicarboxylic acid hydrochloride] | 78.5 | 14.4 |  | 
4 | Nc1nnc(S[C@@H]2C[C@@](N)(C(=O)O)[C@@H]3[C@@H](C(=O)O)[C@@H]32)[nH]1 [Example 3, (1R,2S,4R,5R,6R)-2-Amino-4-(5-amino-[1,3,4]triazol-2-ylsulfanyl)-bicyclo[3.1.0]hexane-2,6-dicarboxylic acid] |  | 17.1 |  | ED60 (60% of the amount of immobility relative to vehicle controls) [2]: < 3 mg/kg
5 | N[C@@]1(C(=O)O)C[C@H](Sc2n[nH]c(C(F)(F)F)n2)[C@H]2[C@H](C(=O)O)[C@H]21 [Example 12, (1R,2S,4S,5R,6R)-2-Amino-4-[[5-(trifluoromethyl)-1H-1,2,4-triazol-3-yl]sulfanyl]bicyclo[3.1.0] hexane-2,6-dicarboxylic acid hydrochloride] | 92.1 |  |  | 
6 | C[C@H](N)C(=O)N[C@@]1(C(=O)O)C[C@@H](Sc2nnc(C(F)(F)F)[nH]2)[C@H]2[C@H](C(=O)O)[C@H]21 [Example 16, (1R,2S,4R,5R,6R)-2-[[(2S)-2-Aminopropanoyl]amino-4-[[5-(trifluoromethyl)-1H-1,2,4-triazol-3-yl]thio]bicyclo[3.1.0]hexane-2,6-dicarboxylic acid hydrochloride] |  |  | 53.9 | 
7 | NCC(=O)N[C@@]1(C(=O)O)C[C@H](Sc2nnc[nH]2)[C@H]2[C@H](C(=O)O)[C@H]21 [Example 22, (1R,2S,4S,5R,6R)-2-[(-2-Aminoacetyl)amino]-4-(4H-1,2,4-triazol-3-ylsulfanyl)bicyclo[3.1.0]hexane-2,6-dicarboxylic acid hydrochloride] |  |  | 46.7 | 
8 | CC(C)C[C@H](N)C(=O)N[C@@]1(C(=O)O)C[C@H](Sc2nnc[nH]2)[C@H]2[C@H](C(=O)O)[C@H]21 [Example 24, (1R,2S,4S,5R,6R)-2-(L-leucylamino)-4-(4H-1,2,4-triazol-3-ylsulfanyl)bicyclo [3.1.0]hexane-2,6-dicarboxylic acid hydrochloride] |  |  | 47.1 | 
9 | NCC(=O)O [Glycine, reference compound] |  |  |  | GlySar uptake inhibition, mean values ± standard deviation (controls) (PepT1): 10.1±9.5%

— patent publication US9296710B2, “Bicyclo (3.1.0) hexane-2, 6-dicarboxylic acid derivatives as mGlu2 receptor agonist” (Eli Lilly and Company, priority 2011, dated 2016)
